Results reported in PubChem BioAssay (NCI).
Where “and” joins values, the source holds several entries; their conditions need not be identical. Equal entries are not always repeated.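 Interpolation was linear, between the two tested concentrations surrounding the appropriate level; five concentrations were tested over 48 hours in 96-well plates. GI50 = concentration required for 50% inhibition of growth. At the TGI there is no net growth.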

Key:
Test in all cases: inhibition of tumour cell growth, NCI panel, 48 h
K-562 leukemia = system: K-562 leukemia
MDA-MB-231 breast = system: MDA-MB-231 breast
SN12C renal = system: SN12C renal
SF-268 CNS = system: SF-268 CNS
EKVX NSCLC = system: EKVX NSCLC
SNB-75 CNS = system: SNB-75 CNS
COLO 205 colon = system: COLO 205 colon
A549 NSCLC = system: A549 NSCLC
BT-549 breast = system: BT-549 breast
TK-10 renal = system: TK-10 renal

Row | SMILES | GI50 (K-562 leukemia) | TGI (K-562 leukemia) | GI50 (MDA-MB-231 breast) | TGI (MDA-MB-231 breast) | GI50 (SN12C renal) | TGI (SN12C renal) | GI50 (SF-268 CNS) | TGI (SF-268 CNS) | GI50 (EKVX NSCLC) | TGI (EKVX NSCLC) | GI50 (SNB-75 CNS) | TGI (SNB-75 CNS) | GI50 (COLO 205 colon) | TGI (COLO 205 colon) | GI50 (A549 NSCLC) | TGI (A549 NSCLC) | GI50 (BT-549 breast) | TGI (BT-549 breast) | GI50 (TK-10 renal) | TGI (TK-10 renal)
1 | Cc1cc2nc3c4cc(Cl)ccc4n(CCN(C)C)c3nc2cc1C | 1.36 µM | 4.03 µM | 1.6 µM | 4.81 µM | 1.61 µM | 8.45 µM | 1.93 µM | 5.29 µM | 2.45 µM | 6.77 µM | 0.738 µM | 6.24 µM | 1.28 µM | 3.24 µM | 1.51 µM | 4.17 µM | 2.53 µM | 8.19 µM | 2.51 µM | 5.74 µM
2 | CC(C)(C)OC(=O)n1cc(CNC(=S)Nc2ccccc2)c2ccccc21 | 8.73 µM | 70.1 µM | 15.5 µM | 28.8 µM | 15.1 µM | 28.4 µM | 11.4 µM | 33.1 µM | 4.15 µM | 21.5 µM | 64.4 µM | > 100 µM | 11.3 µM | 23.4 µM | 10.6 µM | 33.1 µM | 14.5 µM | 32.7 µM | 14.6 µM | 53.9 µM
3 | Clc1ccccc1C(c1ccccc1)(c1ccccc1)n1ccnc1 |  | > 42.1 µM | 2.13 µM | 6.72 µM and 38.6 µM | 2.63 µM | 13.3 µM | 3.92 µM | 18.8 µM and 35.7 µM | 2.41 µM | 13.7 µM and 23.7 µM | 2.14 µM | 8.72 µM and 35.5 µM | 1.76 µM | 3.28 µM and 29 µM | 2.43 µM | 13.3 µM and 29.3 µM | 2.54 µM | 6.87 µM and 20.6 µM | 3.88 µM | 13.5 µM and 30.9 µM
4 | C=CC(=O)N[C@H]1C=C(C)c2c(-c3cnc4ccccc4c3)c3c(N)ncnc3n2C1 | 24.8 µM | > 100 µM | 9.57 µM | 27 µM | 12.9 µM | 98.2 µM | 5.81 µM | 72.9 µM | 0.0785 µM | 42.6 µM | 3.56 µM | 30.5 µM | 15.4 µM | 43.8 µM | 11.6 µM | > 67 µM | 12.5 µM | 41.9 µM | 0.0478 µM | 7.88 µM
5 | C#Cc1cnc(=O)n(C2CC(O)C(CO)O2)c1 (configuration not stated) | > 100 µM | > 100 µM | > 100 µM | > 100 µM | > 100 µM | > 100 µM | > 100 µM | > 100 µM | > 100 µM | > 100 µM | > 100 µM | > 100 µM | > 100 µM | > 100 µM | > 100 µM | > 100 µM | > 100 µM | > 100 µM | > 100 µM | > 100 µM
6 | COc1ccc(C(=S)N2CCN(c3cccc(Cl)c3)CC2)cc1 | 72.8 µM | > 100 µM | 43.9 µM | > 100 µM | > 100 µM | > 100 µM | > 100 µM | > 100 µM | 91.7 µM | > 100 µM | 45.1 µM | > 100 µM | > 100 µM | > 100 µM | > 100 µM | > 100 µM | > 100 µM | > 100 µM | > 100 µM | > 100 µM
7 | O=C(c1cccs1)c1c(C(F)(F)F)n([O-])c2ccccc2[n+]1=O | 1.64 µM | 8.77 µM | 0.639 µM | 1.53 µM | 0.737 µM | 1.67 µM | 0.395 µM | 1.16 µM | 0.798 µM | 1.55 µM | 2.94 µM | 9.05 µM | 1.66 µM | 9.89 µM | 1.36 µM | 3.78 µM | 0.908 µM | 2.37 µM | 1.6 µM | 5.43 µM
8 | Cc1nn(-c2ccc(F)cc2)c2ncnc(Nc3ccc(NC(=O)Nc4ccc(Cl)c(C(F)(F)F)c4)cc3)c12 | 1.75 µM | > 100 µM | 2.03 µM | 5.55 µM | 2.07 µM | 5.56 µM | 3.55 µM | 21.8 µM | 2.78 µM | 10.8 µM | 1.32 µM | 5.41 µM | 1.87 µM | 3.95 µM | 1.8 µM | 4.26 µM | 2.39 µM | 8.48 µM | 2.85 µM | 10.4 µM
9 | COc1ccc(-c2nn(-c3cccc(Cl)c3)cc2C2CC(c3ccccc3)=NN2C(C)=O)cc1 (configuration not stated) | > 100 µM | > 100 µM | 7.99 µM | > 100 µM | 8.35 µM | > 100 µM | 3.13 µM | 14.2 µM | 8.75 µM | > 100 µM | 1.76 µM | 5.99 µM | > 100 µM | > 100 µM | 7.58 µM | > 100 µM | 3.23 µM | 19.7 µM | 5 µM | 21.6 µM
10 | Fc1cccc(COc2ccc(Nc3ncncc3C#Cc3ccccc3)cc2Cl)c1 | > 25 µM | > 25 µM | > 25 µM | > 25 µM | > 25 µM | > 25 µM | > 25 µM | > 25 µM | 8.26 µM | > 25 µM | > 25 µM | > 25 µM | > 25 µM | > 25 µM | > 25 µM | > 25 µM | > 25 µM | > 25 µM | 15 µM | > 25 µM
11 | CSc1nc(SC)c2c(CN=[N+]=[N-])c(Br)n(Cc3ccccc3)c2n1 |  |  |  | > 100 µM |  | > 100 µM |  | > 100 µM |  | > 100 µM |  | > 100 µM |  | > 100 µM |  | > 100 µM |  | > 100 µM |  | > 100 µM
12 | CC(=O)Nc1cccc(-n2c(=O)n(C3CC3)c(=O)c3c(Nc4ccc(I)cc4F)n(C)c(=O)c(C)c32)c1 | 0.0955 µM and 0.196 µM | > 100 µM | 0.0345 µM | 14 µM and > 10 µM | 2.39 µM and > 2.41 µM | > 100 µM | 3.85 µM and > 6.08 µM | > 100 µM | 0.0135 µM and 0.0443 µM | > 71 µM | 3.2 µM and > 2.79 µM | > 55.2 µM | < 0.01 µM and 0.00125 µM |  | 0.0345 µM and 0.122 µM | > 43.8 µM | 6.33 µM and > 9.61 µM | 35.5 µM and > 10 µM | < 0.0144 µM and 0.00977 µM | 20.7 µM and > 10 µM
